Results reported in US12459967B2, “Modulators of 5′-nucleotidase, ecto and the use thereof” (Arcus Biosciences, Inc., priority 2016, dated 2025).

Target: T1, human CD73 (Homo sapiens, UniProt P21589)
T1 construct: host or cells: CHO-K1 (suspension pool CHO-CD73)
T1 sequence (P21589 27-549): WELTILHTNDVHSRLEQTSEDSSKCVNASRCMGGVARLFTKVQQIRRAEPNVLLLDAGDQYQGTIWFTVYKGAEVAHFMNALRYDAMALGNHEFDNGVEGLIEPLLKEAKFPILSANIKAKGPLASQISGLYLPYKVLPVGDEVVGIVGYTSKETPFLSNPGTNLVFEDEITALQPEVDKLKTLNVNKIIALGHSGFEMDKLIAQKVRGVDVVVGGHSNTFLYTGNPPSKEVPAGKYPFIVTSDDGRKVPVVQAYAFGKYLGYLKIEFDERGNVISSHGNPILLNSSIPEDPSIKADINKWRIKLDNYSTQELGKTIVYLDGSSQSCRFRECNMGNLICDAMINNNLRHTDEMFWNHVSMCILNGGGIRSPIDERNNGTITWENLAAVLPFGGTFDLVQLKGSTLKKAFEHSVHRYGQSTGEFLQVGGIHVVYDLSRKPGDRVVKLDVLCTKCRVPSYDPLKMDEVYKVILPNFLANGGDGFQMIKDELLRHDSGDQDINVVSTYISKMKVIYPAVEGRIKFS
Experiment: Inhibition of ecto-5′-nucleotidase (CD73) activity in CHO-CD73 cells, phosphate colorimetric readout
Format: cell-based
Conditions: CHO-K1 cells stably transfected with human CD73, 2500 cells per well, 25 μM AMP substrate, 50 minutes incubation at 37° C.; read-out: Potency: CD73 IC50
Procedure: Inhibition of Ecto-5′-nucleotidase Activity. Compounds were evaluated to determine their ecto-5′-nucleotidase (CD73) inhibitory activity. Briefly, CHO-K1 cells stably transfected with human CD73 were generated by LakePharma (Belmont, CA) using molecular cloning of human CD73 (http://www.uniprot.org/uniprot/P21589) and mammalian transient expression vector (P21589.1). After antibiotic selection in CD OptiCHO cell media (Invitrogen, Catalog #12681-011) containing 5 μg/mL Puromycin and 200 μg/mL Hygromycin B, a suspension pool of CHO-CD73 cells was collected and frozen in 7.5% DMSO in cell media without antibiotics.
On the day of the experiment, one vial of CHO-CD73 cells was thawed and suspended in assay media which consisted of 20 mM HEPES, pH 7.4, 137 mM NaCl, 5.4 mM KCl, 1.3 mM CaCl2), 4.2 mM NaHCO3 and 0.1% glucose. To test the ability of compounds to inhibit CD73 enzymatic activity, 2 μL of 500 μM of compounds dissolved in DMSO (50×) were added to a 96-well polystyrene plate containing 58 μL of assay buffer. Next, 20 μL of CHO-CD73 cells in assay buffer were added to assay plate followed by 20 μL of 125 μM AMP (Adenosine 5′-monophosphate monohydrate) in assay buffer. Final assay conditions consisted of 2500 cells per well in 2% DMSO and 25 μM of AMP substrate. After 50 minutes of incubation (37° C. and 5% CO2) and centrifugation at 225×g for 5 mins, 80 μL of supernatant were transferred to a 96-well Spectra Plate (PerkinElmer, cat #6005640) which was pre-dispensed with 20 μL of PiColorLock Gold colorimetric assay reagents (Thermo, cat #30 300 30). The amount of inorganic phosphate was determined by reading the absorbance at 620 nm on an EnVision Multilabel Plate Reader (PerkinElmer). Enzymatic activity of CD73 was based on the amount of phosphate generated. Percentage of activity was calculated based on DMSO and no cells control wells. IC50 values of compounds were determined by four parameter non-linear regression fitting of percentage of activity in GraphPad Prism software.

Structure (SMILES)	IC50
CC(C)OC(=O)OCOP(=O)(O)CP(=O)(OCOC(=O)OC(C)C)OC[C@H]1O[C@@H](n2ncc3c(N[C@@H](C)c4ccccc4)nc(Cl)nc32)[C@H](O)[C@@H]1O (stereo partly drawn)	> 1000 nM
O=P(O)(O)CP(=O)(O)OC[C@H]1O[C@@H](n2cnc3c(NCc4ccccc4)nc(C(O)c4ccccc4)nc32)[C@@H](F)[C@@H]1O (stereo partly drawn)	< 100 nM
COP(=O)(O)CP(=O)(OC)OC[C@H]1O[C@@H](n2cnc3c(N(C)C4CCCC4)nc(Cl)nc32)[C@@H](F)[C@@H]1O (stereo partly drawn)	> 1000 nM
Nc1ncnc2c1ncn2[C@@H]1O[C@H](COP(=O)(O)CP(=O)(O)O)[C@@H](O)[C@H]1F	> 1000 nM
O=P(O)(O)CP(=O)(O)OC[C@H]1O[C@@H](n2cnc3c(NCCc4ccccc4)nc(Cl)nc32)[C@@H](F)[C@@H]1O	< 100 nM
C[C@H](Nc1cc(Cl)nc2c1cnn2[C@@H]1O[C@H](COP(=O)(O)CP(=O)(O)O)[C@@H](O)[C@H]1O)c1ccc(F)cc1	< 100 nM
O=P(O)(O)CP(=O)(O)OC[C@H]1O[C@@H](n2cnc3c(NCc4ccccc4)nc(N4CCCCC4)nc32)[C@H](O)[C@@H]1O	< 100 nM
Cc1nc(NCc2ccccc2)c2ncn([C@@H]3O[C@H](COP(=O)(O)CP(=O)(O)O)[C@@H](O)[C@H]3O)c2n1	< 100 nM
Nc1nc(F)nc2c1ncn2[C@@H]1O[C@H](COP(=O)(O)CP(=O)(O)O)[C@@H](O)[C@@H]1O	100 to 1000 nM
C[C@@H](Nc1nc(Cl)nc2c1ccn2[C@@H]1O[C@H](COP(=O)(O)CP(=O)(O)O)[C@@H](O)[C@@H]1F)c1ccccc1F	< 100 nM
C[C@H](Nc1nc(Cl)nc2c1ncn2[C@@H]1O[C@H](COP(=O)(O)CP(=O)(O)O)[C@@H](O)[C@@H]1F)c1ccc(F)cc1	< 100 nM
CN(Cc1ccccc1)c1nc(Cl)nc2c1ncn2[C@@H]1O[C@H](COP(=O)(O)CP(=O)(O)O)[C@@H](O)[C@@H]1F	< 100 nM
O=P(O)(O)CP(=O)(O)OC[C@H]1O[C@@H](n2cnc3c(OCc4ccccc4)nc(Cl)nc32)[C@@H](F)[C@@H]1O	< 100 nM
COCc1nc(NC2CCCC2)c2ncn([C@@H]3O[C@H](COP(=O)(O)CP(=O)(O)O)[C@@H](O)[C@@H]3F)c2n1	< 100 nM
CN(Cc1ccccc1Cl)c1nc(Cl)nc2c1ncn2[C@@H]1O[C@H](COP(=O)(O)CP(=O)(O)O)[C@@H](O)[C@@H]1F	< 100 nM
C#Cc1nc(NCc2ccccc2)c2ncn([C@@H]3O[C@H](COP(=O)(O)CP(=O)(O)O)[C@@H](O)[C@@H]3F)c2n1	< 100 nM
C=Cc1nc(NCc2ccccc2)c2ncn([C@@H]3O[C@H](COP(=O)(O)CP(=O)(O)O)[C@@H](O)[C@H]3O)c2n1	< 100 nM
CC(C)N(C)c1nc(Cl)nc2c1ncn2[C@@H]1O[C@H](COP(=O)(O)CP(=O)(O)O)[C@@H](O)[C@H]1O	< 100 nM
CC(C)OC(=O)OCOP(=O)(O)CP(=O)(OCOC(=O)OC(C)C)OC[C@H]1O[C@@H](n2ncc3c(NC4CCCC4)nc(Cl)nc32)[C@H](O)[C@@H]1O (stereo partly drawn)	> 1000 nM
C[C@H](Nc1nc(Cl)nc2c1ccn2[C@@H]1O[C@H](COP(=O)(O)CP(=O)(O)O)[C@@H](O)[C@H]1O)c1ccccc1F	< 100 nM
O=P(O)(O)CP(=O)(O)OC[C@H]1O[C@@H](n2ccc3c(NC4CCCC4)nc(Cl)nc32)[C@@H](F)[C@@H]1O	< 100 nM
CN(c1nc(Cl)nc2c1ncn2[C@@H]1O[C@H](COP(=O)(O)CP(=O)(O)O)[C@@H](O)[C@@]1(C)O)C1CCCC1	< 100 nM
O=P(O)(O)CP(=O)(O)OC[C@H]1O[C@@H](n2cnc3c(NCc4ccccc4)nc(Cc4ccccc4)nc32)[C@@H](F)[C@@H]1O	< 100 nM
CC(C)Nc1nc(Cl)nc2c1ncn2[C@@H]1O[C@H](COP(=O)(O)CP(=O)(O)O)[C@@H](O)[C@H]1O	< 100 nM
CN(c1nc(Cl)nc2c1ncn2[C@@H]1O[C@H](COP(=O)(CP(=O)(Oc2ccc(Cl)c(Cl)c2)Oc2ccc(Cl)c(Cl)c2)Oc2ccc(Cl)c(Cl)c2)[C@@H](O)[C@H]1O)C1CCCC1 (stereo partly drawn)	> 1000 nM
O=P(O)(O)CP(=O)(O)OC[C@H]1O[C@@H](n2cnc3c(N4CCOCC4)nc(Cl)nc32)[C@@H](F)[C@@H]1O	< 100 nM

Structure (SMILES)	IC50
O=P(O)(O)CP(=O)(O)OC[C@H]1O[C@@H](n2cnc3c(NCc4ccc(-c5ccccc5)cc4)ncnc32)[C@H](O)[C@@H]1O	< 100 nM
O=P(O)(O)CP(=O)(O)OC[C@H]1O[C@@H](n2cnc3c(N[C@H]4CCOC4)nc(Cl)nc32)[C@@H](F)[C@@H]1O	< 100 nM
C[C@@H](Nc1nc(Cl)nc2c1ccn2[C@@H]1O[C@H](COP(=O)(O)CP(=O)(O)O)[C@@H](O)[C@@H]1F)c1ccccc1	< 100 nM
CC(C)(C)CNc1nc(Cl)nc2c1ncn2[C@@H]1O[C@H](COP(=O)(O)CP(=O)(O)O)[C@@H](O)[C@H]1O	< 100 nM
C[C@@H](Nc1nc(Cl)nc2c1cnn2[C@@H]1O[C@H](COP(=O)(O)CP(=O)(O)O)[C@@H](O)[C@@H]1F)c1ccccc1F	< 100 nM
CN(C)c1nc(NCc2ccccc2)c2ncn([C@@H]3O[C@H](COP(=O)(O)CP(=O)(O)O)[C@@H](O)[C@H]3O)c2n1	< 100 nM
O=P(O)(O)CP(=O)(O)OC[C@H]1O[C@@H](n2cnc3c(NCc4cccc(F)c4)nc(Cl)nc32)[C@@H](F)[C@@H]1O	< 100 nM
C[C@@H](Nc1nc(Cl)nc2c1ccn2[C@@H]1O[C@H](COP(=O)(O)CP(=O)(O)O)[C@@H](O)[C@@H]1F)c1cccc(F)c1	< 100 nM
O=P(O)(O)CP(=O)(O)OC[C@H]1O[C@@H](n2ncc3c(N[C@H]4CCOC4)nc(Cl)nc32)[C@H](O)[C@@H]1O	< 100 nM
C[C@@H](Nc1cc(Cl)nc2c1cnn2[C@@H]1O[C@H](COP(=O)(O)CP(=O)(O)O)[C@@H](O)[C@@H]1F)c1ccccc1	< 100 nM
O=P(O)(O)CP(=O)(O)OC[C@H]1O[C@@H](n2cnc3c(NCc4ccc(C(F)(F)F)cc4)ncnc32)[C@H](O)[C@@H]1O	< 100 nM
O=P(O)(O)CP(=O)(O)OC[C@H]1O[C@@H](n2ncc3c(NC4CCCC4)cc(Cl)nc32)[C@H](O)[C@@H]1O	< 100 nM
C[C@@H](Nc1nc(Cl)nc2c1cnn2[C@@H]1O[C@H](COP(=O)(O)CP(=O)(O)O)[C@@H](O)[C@@H]1F)c1ccccc1	< 100 nM
O=P(O)(O)CP(=O)(O)OC[C@H]1O[C@@H](n2cnc3c(NCc4ccc(F)cc4)nc(Cl)nc32)[C@@H](F)[C@@H]1O	< 100 nM
CC(C)(C)c1ccc(CNc2nc(Cl)nc3c2ncn3[C@@H]2O[C@H](COP(=O)(O)CP(=O)(O)O)[C@@H](O)[C@H]2O)cc1	< 100 nM
CC(C)Nc1nc(Cl)nc2c1ncn2[C@@H]1O[C@H](COP(=O)(O)CP(=O)(O)O)[C@@H](O)[C@@H]1F	< 100 nM
O=P(O)(O)CP(=O)(O)OC[C@H]1O[C@@H](n2ncc3c(NC4CCCC4)cc(Cl)nc32)[C@@H](F)[C@@H]1O	< 100 nM
O=P(O)(O)CP(=O)(O)OC[C@H]1O[C@@H](n2cnc3c(NC4CCOCC4)nc(Cl)nc32)[C@@H](F)[C@@H]1O	< 100 nM
O=P(O)(O)CP(=O)(O)OC[C@H]1O[C@@H](n2cnc3c(NC4CCCC4)nc(C(O)C4CCOCC4)nc32)[C@@H](F)[C@@H]1O (stereo partly drawn)	100 to 1000 nM
O=P(O)(O)CP(=O)(O)OC[C@H]1O[C@@H](n2cnc3c(NC4CCCC4)nc(Cl)nc32)[C@H](O)[C@@H]1O	< 100 nM
C=CCc1nc(NCc2ccccc2)c2ncn([C@@H]3O[C@H](COP(=O)(O)CP(=O)(O)O)[C@@H](O)[C@H]3O)c2n1	< 100 nM
O=P(O)(O)CP(=O)(O)OC[C@H]1O[C@@H](n2cnc3c(NCc4ccccc4)nc(CCc4ccccc4)nc32)[C@@H](F)[C@@H]1O	< 100 nM
C[C@H](Nc1nc(Cl)nc2c1cnn2[C@@H]1O[C@H](COP(=O)(O)CP(=O)(O)O)[C@@H](O)[C@H]1O)c1ccccc1F	< 100 nM
CCC(OP(=O)(O)CP(=O)(O)O)[C@H]1O[C@@H](n2cnc3c(NCc4ccccc4)nc(Cl)nc32)[C@H](O)[C@@H]1O (stereo partly drawn)	< 100 nM
CC(C)S(=O)(=O)c1nc(NCc2ccccc2)c2ncn([C@@H]3O[C@H](COP(=O)(O)CP(=O)(O)O)[C@@H](O)[C@H]3O)c2n1	100 to 1000 nM
